Earlier results on 4 compounds are cited in patent publication US20260146084A1, “METHODS FOR TREATING MYELOFIBROSIS AND RELATED CONDITIONS” (Disc Medicine, Inc., priority 2019, published 2026).

Data set [1] relates to pro-inflammatory cytokines. The settings on record: mouse models.
Data set [2] addresses T1, ACVR1 (HJV signaling partner) (Homo sapiens, UniProt Q04771).
T1 sequence (Q04771 21-509): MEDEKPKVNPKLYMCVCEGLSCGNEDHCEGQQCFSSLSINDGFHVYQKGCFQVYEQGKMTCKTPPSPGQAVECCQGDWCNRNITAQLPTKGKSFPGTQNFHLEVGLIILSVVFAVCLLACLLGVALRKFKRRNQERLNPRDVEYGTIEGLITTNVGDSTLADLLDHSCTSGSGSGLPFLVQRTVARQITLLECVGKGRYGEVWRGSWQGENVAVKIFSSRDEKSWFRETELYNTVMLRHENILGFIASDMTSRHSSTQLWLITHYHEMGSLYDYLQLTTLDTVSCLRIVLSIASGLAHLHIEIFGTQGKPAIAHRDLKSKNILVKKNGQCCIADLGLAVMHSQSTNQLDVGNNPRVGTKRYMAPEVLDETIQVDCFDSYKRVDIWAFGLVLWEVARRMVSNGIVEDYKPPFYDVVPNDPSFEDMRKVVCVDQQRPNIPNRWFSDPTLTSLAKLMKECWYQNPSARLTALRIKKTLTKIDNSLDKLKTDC

A further data set deals with JAK2 (Homo sapiens, UniProt O60674).
For another data set, the target named is JAK1 (Homo sapiens, UniProt P23458).
Sequence of JAK1 (P23458 whole entry): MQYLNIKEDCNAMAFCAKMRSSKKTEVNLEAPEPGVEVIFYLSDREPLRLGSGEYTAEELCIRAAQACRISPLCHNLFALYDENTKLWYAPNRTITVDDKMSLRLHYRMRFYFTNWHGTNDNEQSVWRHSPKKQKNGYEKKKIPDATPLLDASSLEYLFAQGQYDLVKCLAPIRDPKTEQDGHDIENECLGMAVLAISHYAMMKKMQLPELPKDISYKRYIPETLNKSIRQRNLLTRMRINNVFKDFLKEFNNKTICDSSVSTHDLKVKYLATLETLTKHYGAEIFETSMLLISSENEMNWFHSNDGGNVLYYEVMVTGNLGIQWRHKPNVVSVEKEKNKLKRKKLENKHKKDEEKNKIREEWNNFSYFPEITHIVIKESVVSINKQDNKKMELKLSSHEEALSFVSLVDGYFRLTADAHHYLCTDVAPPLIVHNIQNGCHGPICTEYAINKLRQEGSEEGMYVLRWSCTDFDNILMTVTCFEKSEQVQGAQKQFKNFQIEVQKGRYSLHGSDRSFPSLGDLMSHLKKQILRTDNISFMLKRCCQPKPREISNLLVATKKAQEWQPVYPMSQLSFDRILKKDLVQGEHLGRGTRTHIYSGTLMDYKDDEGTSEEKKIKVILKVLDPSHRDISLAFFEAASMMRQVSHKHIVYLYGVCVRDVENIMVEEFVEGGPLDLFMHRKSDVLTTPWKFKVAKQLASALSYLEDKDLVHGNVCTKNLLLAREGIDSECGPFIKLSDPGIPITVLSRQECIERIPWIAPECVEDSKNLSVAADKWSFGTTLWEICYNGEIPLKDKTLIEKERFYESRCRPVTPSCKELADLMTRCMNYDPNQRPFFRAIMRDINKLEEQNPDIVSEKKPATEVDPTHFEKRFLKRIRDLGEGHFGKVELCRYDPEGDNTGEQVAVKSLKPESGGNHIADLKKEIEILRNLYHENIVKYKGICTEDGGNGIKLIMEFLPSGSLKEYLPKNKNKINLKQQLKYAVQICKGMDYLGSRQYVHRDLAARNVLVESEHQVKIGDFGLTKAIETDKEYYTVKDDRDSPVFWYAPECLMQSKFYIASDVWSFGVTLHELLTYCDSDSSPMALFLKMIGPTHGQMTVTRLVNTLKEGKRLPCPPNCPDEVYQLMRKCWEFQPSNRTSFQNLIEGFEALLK

Sequence of JAK2 (O60674 whole entry): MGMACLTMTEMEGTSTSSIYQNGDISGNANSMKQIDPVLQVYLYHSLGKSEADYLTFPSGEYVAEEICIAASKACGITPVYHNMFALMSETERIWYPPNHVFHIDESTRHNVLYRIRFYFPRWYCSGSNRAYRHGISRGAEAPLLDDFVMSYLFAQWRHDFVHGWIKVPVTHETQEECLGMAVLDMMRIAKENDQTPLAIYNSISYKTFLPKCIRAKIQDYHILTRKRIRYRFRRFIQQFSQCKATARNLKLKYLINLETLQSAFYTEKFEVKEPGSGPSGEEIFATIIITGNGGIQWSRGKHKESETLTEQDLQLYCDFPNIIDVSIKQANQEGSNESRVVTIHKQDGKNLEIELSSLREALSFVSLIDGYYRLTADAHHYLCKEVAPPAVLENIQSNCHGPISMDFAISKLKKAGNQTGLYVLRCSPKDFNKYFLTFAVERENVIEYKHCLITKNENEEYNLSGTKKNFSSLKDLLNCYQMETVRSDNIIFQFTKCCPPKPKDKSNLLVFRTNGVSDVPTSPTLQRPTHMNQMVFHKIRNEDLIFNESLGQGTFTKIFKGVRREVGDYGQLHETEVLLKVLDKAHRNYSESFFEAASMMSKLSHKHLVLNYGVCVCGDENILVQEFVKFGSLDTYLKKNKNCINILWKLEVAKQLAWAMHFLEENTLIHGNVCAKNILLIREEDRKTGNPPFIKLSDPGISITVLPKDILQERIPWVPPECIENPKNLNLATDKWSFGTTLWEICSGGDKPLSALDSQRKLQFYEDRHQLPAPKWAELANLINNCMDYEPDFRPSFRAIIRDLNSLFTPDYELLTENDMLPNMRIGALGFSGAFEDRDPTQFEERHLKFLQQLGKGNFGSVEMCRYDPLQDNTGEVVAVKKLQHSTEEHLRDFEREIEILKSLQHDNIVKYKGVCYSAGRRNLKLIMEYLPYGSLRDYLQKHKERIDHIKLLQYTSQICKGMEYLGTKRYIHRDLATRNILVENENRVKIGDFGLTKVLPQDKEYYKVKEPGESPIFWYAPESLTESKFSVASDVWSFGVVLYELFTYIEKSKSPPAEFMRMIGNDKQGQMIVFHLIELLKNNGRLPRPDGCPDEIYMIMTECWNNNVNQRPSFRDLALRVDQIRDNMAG

Take `Cc1noc2c1-c1ccccc1C(c1ccc(Cl)cc1)=N[C@H]2CC(N)=O` [CP-0610]: the pro-inflammatory cytokines entry in data set [1] is listed as “downregulated pro-inflammatory cytokines”.
`Cc1cnc(Nc2ccc(OCCN3CCCC3)cc2)nc1Nc1cccc(S(=O)(=O)NC(C)(C)C)c1` [Fedratinib]: the effect on anemia result in the data set on myelofibrosis patients is recorded as “worsens anemia”.
In the case of `N#CCNC(=O)c1ccc(-c2ccnc(Nc3ccc(N4CCOCC4)cc3)n2)cc1` [Momelotinib], the “inhibition of ACVR1” value in data set [2] is reported as “inhibits”. In the data set with myelofibrosis patients, the effect on anemia result is on record as “improves anemia”; the “effect on splenomegaly and disease symptoms” value was “improving disease symptoms”. On JAK2, the “inhibition of JAK2” value was “inhibits”. Also, the “inhibition of JAK1” value on JAK1 was “inhibits”.
Regarding `N#CC[C@H](C1CCCC1)n1cc(-c2ncnc3[nH]ccc23)cn1` [ruxolitinib], in the data set on myelofibrosis patients, the effect on anemia entry is listed as “worsens anemia”.
